Assay results as given in patent publication EP4741383A1, “COMPOUND AND USE THEREOF AS ANTI-CANCER DRUG” (Tyligand Bioscience (Shanghai) Limited, priority 2023, dated 2025).

What was measured:
EMT6 = assay: CellTiter-Glo cell proliferation inhibition, EMT6; assay type: cell-based; conditions: EMT6 (mouse breast cancer cell line), 72 hours; read-out: Example IC50 (µM) EMT6
Excerpt: (§1) This experiment used the CellTiter-Glo® Luminescent Cell Viability Assay kit from Promega to evaluate the inhibitory activity of the disclosed compounds on the proliferation of the following cell lines: 4T1 (mouse breast cancer cell line), A20 (mouse B-cell lymphoma cell line), A2780 (human ovarian cancer cell line), AsPC-1 (pancreatic cancer cell line), B16F10 (mouse melanoma cell line), BT549 (human breast cancer cell line), CT26 (mouse colon cancer cell line), EMT6 (mouse breast cancer cell line), HCT116 (colorectal cancer cell line), Jurket (acute leukemia cell line), KP-4 (pancreatic cancer cell line), LL/2 (mouse lung cancer cell line), MCF7 (breast cancer cell line), […] NCI-H358 (lung cancer cell line), NCI-H727 (gastric cancer cell line), NCI-1944 (lung cancer cell line), Pan 04.03 (pancreatic cancer cell line), SK-BR-3 (breast cancer cell line), THP-1 (leukemia cell line), TOV21G (ovarian cancer cell line), U87MG (glioblastoma cell line), and UM-UC-a (bladder cancer cell line). […]
(§2) Cells were cultured according to the instructions provided by the cell supplier (Nanjing Kebai Biotechnology Co., Ltd.). […] Suspension or adherent cells were collected, and cell viability was determined using the trypan blue exclusion method, ensuring that cell viability was above 90%. […]

U87MG = assay: CellTiter-Glo cell proliferation inhibition, U87MG; assay type: cell-based; conditions: Homo sapiens, U-87 MG; U87MG (glioblastoma cell line), 72 hours; read-out: Example IC50 (µM) U87MG
Excerpt: as §1, §2

B16F10 = assay: CellTiter-Glo cell proliferation inhibition, B16F10; assay type: cell-based; conditions: B16-F10; B16F10 (mouse melanoma cell line), 72 hours; read-out: Example IC50 (µM) B16F10
Excerpt: as §1, §2

NCI-H727 = assay: CellTiter-Glo cell proliferation inhibition, NCI-H727; assay type: cell-based; conditions: Homo sapiens; […]; read-out: Example IC50 (µM) NCI-H727
Excerpt: as §1, §2

AsPC-1 = assay: CellTiter-Glo cell proliferation inhibition, AsPC-1; assay type: cell-based; conditions: Homo sapiens, ASPC1; AsPC-1 (pancreatic cancer cell line), 72 hours; read-out: Example IC50 (µM) AsPC-1
Excerpt: as §1, §2

MCF7 = assay: CellTiter-Glo cell proliferation inhibition, MCF7; assay type: cell-based; conditions: Homo sapiens; MCF7 (breast cancer cell line), 72 hours; read-out: Example IC50 (µM) MCF7
Excerpt: as §1, §2

TOV21G = assay: CellTiter-Glo cell proliferation inhibition, TOV21G; assay type: cell-based; conditions: Homo sapiens; TOV21G (ovarian cancer cell line), 72 hours; read-out: Example IC50 (µM) TOV21G
Excerpt: as §1, §2

BT549 = assay: CellTiter-Glo cell proliferation inhibition, BT549; assay type: cell-based; conditions: BT-549; BT549 (human breast cancer cell line), 72 hours; read-out: Example IC50 (µM) BT549
Excerpt: as §1, §2

A2780 = assay: CellTiter-Glo cell proliferation inhibition, A2780; assay type: cell-based; conditions: A2780 (human ovarian cancer cell line), 72 hours; read-out: Example IC50 (µM) A2780
Excerpt: as §1, §2

4T1 = assay: CellTiter-Glo cell proliferation inhibition, 4T1; assay type: cell-based; conditions: 4T1 (mouse breast cancer cell line), 72 hours; read-out: Example IC50 (µM) 4T1
Excerpt: as §1, §2

KP-4 = assay: CellTiter-Glo cell proliferation inhibition, KP-4; assay type: cell-based; conditions: Homo sapiens; KP-4 (pancreatic cancer cell line), 72 hours; read-out: Example IC50 (µM) KP-4
Excerpt: as §1, §2

LL/2 = assay: CellTiter-Glo cell proliferation inhibition, LL/2; assay type: cell-based; conditions: LL/2 (mouse lung cancer cell line), 72 hours; read-out: Example IC50 (µM) LL/2
Excerpt: as §1, §2

CT26 = assay: CellTiter-Glo cell proliferation inhibition, CT26; assay type: cell-based; conditions: CT26 (mouse colon cancer cell line), 72 hours; read-out: Example IC50 (µM) CT26
Excerpt: as §1, §2

[1] = J. Med. Chem. 2014, 57, 6594-6609; read-out: cellular activity IC50; cited from earlier work
SHP2 = SHP2 (Homo sapiens, UniProt Q06124); conditions: J. Med. Chem. 2014, 57, 6594-6609; read-out: enzyme activity IC50; cited from earlier work

IC50 (U87MG) [µM] | IC50 (B16F10) [µM] | IC50 (NCI-H727) [µM] | IC50 (AsPC-1) [µM] | IC50 (MCF7) [µM] | IC50 (BT549) [µM] | IC50 (A2780) [µM] | IC50 (4T1) [µM] | IC50 (CT26) [µM] | SMILES | IC50 (EMT6) [µM] | IC50 (TOV21G) [µM] | IC50 (KP-4) [µM] | IC50 (LL/2) [µM] | IC50 [1] [nM] | IC50 (SHP2) [nM]
0.276 | 0.142 | 0.225 | 0.121 | 0.083 | 0.121 | 0.128 | 0.125 | 0.123 | O=C(Nc1ccc(-c2csc(CO)c2)cc1)C(=O)Nc1ccc(-c2cc3cc(F)c(-c4nnn[nH]4)cc3n2C2CCC2)cc1 [Example 1] | 0.131 | 0.112 | 0.228 | 0.207 | – | –
– | – | – | – | – | – | – | – | – | Cn1c(-c2cccc(NC(=O)C(=O)Nc3ccc(-c4ccsc4)cc3)c2)c(I)c2cc(C(=O)O)c(O)cc21 [Example 11a-1, reference compound] | – | – | – | – | ≥ 1000 | ~200
0.075 | – | – | – | 0.05 | 0.047 | – | 0.14 | 0.134 | O=C(Nc1ccc(-c2cc3cc(F)c(-c4nnn[nH]4)cc3n2C2CCC2)cc1)C(=O)Nc1ccc(N2CCC3(CCC(O)C3)CC2)cc1 (stereo not drawn) [Example 100] | – | 0.106 | – | – | – | –
